Results on three compounds are retold here after patent US11123314B2 (NATIONAL CANCER CENTER, priority 2017, dated 2021).

For data set [1], the system named is Miapaca2, Panc-1, or Aspc-1 cells. As to the kind of experiment: Intracellular ATP level (ATP Colorimetric/Fluorometric Analysis Kit). The class given is cell-based. Particulars: gossypol 5 μM, phenformin 500 μM, alone or mixed; compared with control group with no drug treatment. As to the method:
Then, an intracellular ATP level was checked with the ATP Colorimetric/Fluorometric Analysis Kit (BioVision, Milpitas, Calif., USA) according to the protocol provided by the manufacturer. The cultured cells were divided into 1×10^6 cells and 100 μl of ATP assay buffer was added thereto to dissolve the cells. Then, centrifugation was performed at 15,000×g for 2 minutes at 4° C., to separate only the supernatant. 2 to 50 μl of the separated supernatant was transferred to a 96-well plate, and then an ATP assay buffer was added to a final volume of 50 μl per well. Thereafter, an ATP reaction mixture containing 44 μl of ATP assay buffer, 2 μl of ATP probe, 2 μl of ATP converter, and 2 μl of developer mixture was added to the 96-well plate at 50 μl per well and mixing was performed.

Data set [2] concerns normal epithelial cell line IMR90. Kind of data set: Annexin V-FITC/PI apoptosis detection by flow cytometry in normal cells. Particulars: gossypol 10 μM, phenformin 100 μM, alone or mixed; 24, 48 and 72 hours. The method, then:
First, the normal epithelial cell line IMR90 was cultured. Then, the cultured cells were treated with a single drug of gossypol 10 μM or phenformin 100 μM, or a mixed drug obtained by mixing them, and culture was performed for 24, 48, and 72 hours in total. The medium was removed from the cultured cells, and the cultured cells were washed twice with cold PBS. Centrifugation was performed at 1,400 rpm for 3 minutes, and then a binding buffer solution was added thereto at a concentration of 1×10^6 cells/mL. […] of the buffer solution was transferred to a 5-mL culture tube, and 5 μl of each of Annexin V-FITC and propidium iodide (PI) was added thereto. The tube was slowly vortexed to perform mixing, and then incubated for 15 minutes in a dark room at room temperature. After the incubation, a binding buffer solution (400 μl) was added thereto and a level of increase in cell death was checked by flow cytometry.

In data set [3] the test system is pancreatic cancer cell lines Miapaca-2, Panc-1, Aspc-1, SNU-410, SNU-324, Bxpc-3. Kind of data set: SRB assay, inhibitory effect of gossypol or phenformin alone on growth of pancreatic cancer cells. Type of data set: cell-based. Particulars: for inhibitory effect on cell proliferation: 48 hours after treatment with the drug, applied alone; for proliferation of the cancer cells: gossypol or phenformin added alone to each type of the pancreatic cancer cells, SRB assay.
Experimental: (§3) Specifically, each type of various pancreatic cancer cell lines, Miapaca-2, Panc-1, Aspc-1, SNU-410, SNU-324, and Bxpc-3 cells, was cultured, during which each type of cells was inoculated into a 96-well plate at a density of 5,000 to 20,000 cells/well depending on an amplification period of culture time. After inoculation, gossypol or phenformin was added to each well and incubated in a CO2 incubator for 24 hours. Then, the cells were fixed by adding 50% (w/v) cooled trichloroacetic acid (TCA) to each well so as to become a final concentration of 10%. The supernatant other than the fixed cells was removed and the plate was washed about five times with tap water and then air dried. After drying, 0.4% (w/v) sulforhodamine B buffer solution containing 1% acetic acid was added to each well, and the plate was left to stand at room temperature for 10 minutes so that the cells were stained. After staining the cells, the plate was washed 5 times with 1% acetic acid to remove unstained dye, and then air dried. The stained dye was immobilized with 10 mM trizma base, and then absorbance was measured at 515 nm using a plate reader.

Data set [4] deals with Miapaca2 pancreatic cancer cell line. Kind of data set: Pancreatic cancer mouse model (xenograft), tumor volume and weight. Type of data set: in vivo, Balb/c-nu mice. Particulars: gossypol 40 mg/kg, phenformin 100 mg/kg, oral once a day, alone or combined; compared with solvent control. The method, then: (§1) First, 6- to 8-week-old Balb/c-nu mice (Central Lab. Animal, Highland Heights, Ky., USA) were prepared to make a pancreatic cancer mouse model. In addition, Miapaca2 pancreatic cancer cell line was cultured at 5.0×10^6 cells, and subcutaneously injected into the prepared mice with a 1-ml syringe. The mice were bred for 2 weeks, and divided into four groups in total, with each group containing 6 mice. The four groups were used as a solvent control group (10% DMSO, 40% PEG, 50% PBS), a group in which 40 mg/kg/100 μl of gossypol is administered alone, a group in which 100 mg/kg/100 μl of phenformin is administered alone, and a group in which gossypol+phenformin are administered in combination, respectively. To each mouse group was orally administered once a day the solvent or the drug, and the mice were bred in the same environment for a total of 61 days.
(§2) While breeding the mice, body weights and tumor sizes in each mouse group were checked every 3 days and averaged. A size of the initial tumor after injection of pancreatic cancer cells was determined using a caliper. A tumor volume was calculated using the following Equation 1.

Data set [5] deals with Miapaca2, Panc-1, or Aspc-1 cells. Particulars: applied alone at low drug concentration (gossypol 5 or 10 μM; phenformin 100 or 500 μM).
Experimental: as §3
Specifically, Miapaca2, Panc-1, or Aspc-1 cells were cultured. Each type of the cultured cells was treated with a mixed drug obtained by mixing gossypol 5 μM and phenformin 100 μM, or gossypol 10 μM and phenformin 500 μM, and cultured in the same manner.
For data set [6], the system named is Miapaca2, Panc-1, CAPAN1, CAPAN2, ASPC-1, SNU-213, SNU-324, or BXPC-3 cells. As to the kind of experiment: SRB assay, combined treatment with gossypol, phenformin and anti-cancer agent (triple combination). Type of data set: cell-based. Particulars: 48 hours; compared with group given gossypol or phenformin alone; gossypol 2.5 or 5 μM, phenformin 100 μM, irinotecan 1 μM. The method, then:
Specifically, Miapaca2, Panc-1, CAPAN1, CAPAN2, ASPC-1, SNU-213, SNU-324, or BXPC-3 cells were cultured. Each type of the cultured cells was treated with gossypol, phenformin, or irinotecan alone, or with a mixed drug thereof. […] As a control group, an untreated group with no drug treatment was used, and a relative cell proliferation level in each drug-treated group was expressed and calculated as a percentage as compared with the control group.

A short description of data set [7]: Pancreatic cancer mouse model, body weight. Particulars: oral once a day, 61 days; compared among experimental groups. As to the method:
as §1, §2

On to `[H]/N=C(/N)N/C(=N/[H])NCCc1ccccc1` [phenformin], for which the “intracellular ATP level” value in data set [1] is reported as “decreased”. The “cell death over time in IMR90 normal cells” value in data set [2] is recorded as “significant increase in cell death is not exhibited”. In data set [3], the “inhibitory effect on cell proliferation” value is “complete inhibitory effect on cell proliferation” and the “proliferation of the cancer cells” value is listed as “significantly inhibited”. Further, the “level of increase in tumor volume” value in data set [4] is given as “somewhat decreased”. The “inhibition of cell growth” value in data set [5] is given as “significant inhibition of cell growth was not exhibited”.

On to `CCc1c2c(nc3ccc(OC(=O)N4CCC(N5CCCCC5)CC4)cc13)-c1cc3c(c(=O)n1C2)COC(=O)[C@]3(O)CC` [irinotecan], for which the “proliferation level in pancreatic cancer cells” value in data set [6] is “significantly decreased”.

As to `Cc1cc2c(C(C)C)c(O)c(O)c(C=O)c2c(O)c1-c1c(C)cc2c(C(C)C)c(O)c(O)c(C=O)c2c1O` [gossypol], in data set [1], the “intracellular ATP level” value is listed as “decreased”. For the same compound, the “cell death over time in IMR90 normal cells” value in data set [2] is “significant increase in cell death is not exhibited”. For the same compound, in data set [3], the “inhibitory effect on cell proliferation” value was “complete inhibitory effect on cell proliferation” and the “proliferation of the cancer cells” value is given as “significantly inhibited”. In addition, the “level of increase in tumor volume” value in data set [4] is recorded as “somewhat decreased”. The body weights result in data set [7] is “not significantly different”. Besides, the “inhibition of cell growth” value in data set [5] is listed as “significant inhibition of cell growth was not exhibited”.
